56 compounds from US20150344457A1, “METHODS OF INHIBITING PRMT5” (EPIZYME, INC., priority 2012, published 2015) can be followed below.

Each structure is given as a SMILES string.

The term IC50 denotes the concentration that inhibits the measured activity by half.

T1 sequence (O14744 with tags, fused parts or gaps): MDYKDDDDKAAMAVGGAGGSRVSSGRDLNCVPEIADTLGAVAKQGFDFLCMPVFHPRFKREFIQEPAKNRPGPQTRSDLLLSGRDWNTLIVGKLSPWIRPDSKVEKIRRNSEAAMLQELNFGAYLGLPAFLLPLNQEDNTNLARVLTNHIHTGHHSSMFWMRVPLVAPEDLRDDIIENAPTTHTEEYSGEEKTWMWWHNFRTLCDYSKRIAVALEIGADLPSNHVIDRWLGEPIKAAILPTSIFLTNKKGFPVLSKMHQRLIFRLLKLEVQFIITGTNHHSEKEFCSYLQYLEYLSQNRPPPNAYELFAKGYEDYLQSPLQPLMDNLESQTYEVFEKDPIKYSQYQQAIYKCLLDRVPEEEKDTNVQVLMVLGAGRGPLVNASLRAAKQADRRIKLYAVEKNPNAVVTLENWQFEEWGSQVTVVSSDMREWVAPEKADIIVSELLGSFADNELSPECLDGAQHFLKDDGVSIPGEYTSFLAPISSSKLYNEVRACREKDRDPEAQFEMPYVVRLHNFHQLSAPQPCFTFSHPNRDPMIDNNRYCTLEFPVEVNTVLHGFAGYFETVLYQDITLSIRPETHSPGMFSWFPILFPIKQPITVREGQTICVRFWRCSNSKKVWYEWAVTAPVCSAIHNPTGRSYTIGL
T1 sequence (Q9BQA1 with tags, fused parts or gaps partner limits assumed): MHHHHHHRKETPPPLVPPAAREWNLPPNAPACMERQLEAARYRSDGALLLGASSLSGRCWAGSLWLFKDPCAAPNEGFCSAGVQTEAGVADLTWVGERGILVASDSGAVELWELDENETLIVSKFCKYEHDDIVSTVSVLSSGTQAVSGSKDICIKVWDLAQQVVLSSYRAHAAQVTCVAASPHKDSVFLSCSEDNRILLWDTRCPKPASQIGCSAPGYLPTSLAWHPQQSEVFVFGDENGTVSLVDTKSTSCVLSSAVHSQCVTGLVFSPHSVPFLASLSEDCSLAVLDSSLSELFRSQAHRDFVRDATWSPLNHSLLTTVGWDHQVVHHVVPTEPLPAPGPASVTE

The first test concerns the target T1, PRMT5/MEP50 (Homo sapiens, UniProt O14744).
T1 construct: Expressed full-length human Flag-PRMT5/6His-MeP50 protein complex was purified; made in house; host or cells: Spodoptera frugiperda (SF9) insect cells, baculovirus (pDEST8)
The test can be described thus: PRMT5 Biochemical Assay (PRMT5/MEP50 enzyme assay on peptide substrate, 3H-SAM Flashplate). Conditions: PRMT5 biochemical assay, Table C-2; read-out: Biochemical IC50. The source says:
S-adenosylmethionine (SAM), S-adenosylhomocysteine (SAH), bicine, KCl, Tween20, dimethylsulfoxide (DMSO), bovine skin gelatin (BSG), and Tris(2-carboxyethyl)phosphine hydrochloride solution (TCEP) were purchased from Sigma-Aldrich at the highest level of purity possible. ^3H-SAM was purchase from American Radiolabeled Chemicals with a specific activity of 80 Ci/mmol 384-well streptavidin Flashplates were purchased from PerkinElmer.
Peptide representative of human histone H4 residues 1-15 was synthesized with a C-terminal linker-affinity tag motif and a C-terminal amide cap by 21st Century Biochemicals. […] The sequence was Ac-[…][K-Biot]-amide (SEQ ID NO.:3).
Full-length human MEP50 (NM_024102) clone was amplified from a human testis cDNA library incorporating a 5′ sequence encoding a 6-histidine tag (MHHHHHH) (SEQ ID NO.:5) fused directly to Arg 2 of MEP50. The amplified genes were sublconed into pENTR/D/TEV (Life Technologies) and subsequently transferred by Gateway™ attL×attR recombination to pDEST8 baculvirus expression vector (Life Technologies).
Recombinant baculovirus and Baculovirus-Infected Insect Cells (BIIC) were generated according to Bac-to-Bac kit instructions (Life Technologies) and Wasilko, 2006, respectively. Protein over-expression was accomplished by infecting exponentially growing Spodoptera frugiperda (SF9) cell culture at 1.2×10^6 cell/ml with a 5000 fold dilution of BIIC stock. Infections were carried out at 27° C. for 72 hours, harvested by centrifugation, and stored at −80° C. for purification.
Flag-PRMT5/6His-MeP50 was eluted with 300 mM Imidazole in the same buffer. […] Reference: Wasilko, D. J. and S. E. Lee: “TIPS: titerless infected-cells preservation and scale-up” Bioprocess J., 5 (2006), pp. 29-32.
General Procedure for PRMT5/MEP50 Enzyme Assays on Peptide Substrates.
The assays were all performed in a buffer consisting of 20 mM Bicine (pH=7.6), 1 mM TCEP, 0.005% BSG, and 0.002% Tween20, prepared on the day of use. Compounds in 100% DMSO (1 ul) were spotted into a polypropylene 384-well V-bottom plates (Greiner) using a Platemate Plus outfitted with a 384-channel head (Thermo Scientific). DMSO (1 ul) was added to Columns 11, 12, 23, 24, rows A-H for the maximum signal control and 1 ul of SAH, a known product and inhibitor of PRMT5/MEP50, was added to columns 11, 12, 23, 24, rows I-P for the minimum signal control. A cocktail (40 ul) containing the PRMT5/MEP50 enzyme and the peptide was added by Multidrop Combi (Thermo-Fisher). The compounds were allowed to incubate with PRMT5/MEP50 for 30 min at 25 degrees Celsius, then a cocktail (10 ul) containing ^3H-SAM was added to initiate the reaction (final volume=51 ul). The final concentrations of the components were as follows: PRMT5/MEP50 was 4 nM, ^3H-SAM was 75 nM, peptide was 40 nM, SAH in the minimum signal control wells was 100 uM, and the DMSO concentration was 1%. The assays were stopped by the addition of non-radioactive SAM (10 ul) to a final concentration of 600 uM, which dilutes the ^3H-SAM to a level where its incorporation into the peptide substrate is no longer detectable. 50 ul of the reaction in the 384-well polypropylene plate was then transferred to a 384-well Flashplate and the biotinylated peptides were allowed to bind to the streptavidin surface for at least 1 hour before being washed three times with 0.1% Tween20 in a Biotek ELx405 plate washer. The plates were then read in a PerkinElmer TopCount plate reader to measure the quantity of ^3H-labeled peptide bound to the Flashplate surface, measured as disintegrations per minute (dpm) or alternatively, referred to as counts per minute (cpm).
where dpm=disintegrations per minute, cmpd=signal in assay well, and min and max are the respective minimum and maximum signal controls.
where top and bottom are the normally allowed to float, but may be fixed at 100 or 0 respectively in a 3-parameter fit.
Turning to `O=C1CN(c2cccc(F)c2)CCN1CC(O)CN1CCc2ccccc2C1` (centres unmarked) [Compound C6], the IC50 is below 100 nM.

In the case of `O=C1COCCN1CC(O)CN1CCc2ccccc2C1` (centres unmarked) [Compound C28], the concentration for half-maximal inhibition (IC50) lay in the range of 1000 to 10000 nM.

As to `O=C1CN(c2cccc3cccnc23)CCN1CC(O)CN1CCc2ccccc2C1` (centres unmarked) [Compound C4], the IC50 is below 100 nM.

`O=C1CN(c2cncc(N3CCOCC3)c2)CCN1CC(O)CN1CCc2ccccc2C1` (centres unmarked) [Compound C8]: the IC50 is below 100 nM.

On to `O=C1CN(C2CCOCC2)CCN1CC(O)CN1CCc2ccccc2C1` (centres unmarked) [Compound C23], for which the IC50 is 1000 to 10000 nM.

With `Cc1cccc(N2CCN(CC(O)CN3CCc4ccccc4C3)C(=O)C2)c1` (centres unmarked) [Compound C3], the IC50 was 10000 to 50000 nM.

In the case of `CS(=O)(=O)N1CCN(CC(O)CN2CCc3ccccc3C2)C(=O)C1` (centres unmarked) [Compound C22], the half-inhibitory concentration (IC50) fell in the range of 1000 to 10000 nM.

On to `O=c1cc(Nc2ccccc2)ccn1C[C@H](O)CN1CCc2ccccc2C1` [Compound C18], for which the IC50 lay within 1000 to 10000 nM.

In the case of `O=C1CN(c2cccc(Cl)c2)CCN1CC(O)CN1CCc2ccccc2C1` (centres unmarked) [Compound C5], the concentration for half-maximal inhibition (IC50) was below 100 nM.

In the case of `O=C1CN(Cc2ccccn2)CCN1CC(O)CN1CCc2ccccc2C1` (centres unmarked) [Compound C25], the IC50 lay in the range of 1000 to 10000 nM.

Regarding `O=C(NC1CCOCC1)C1CC(=O)N(CC(O)CN2CCc3ccccc3C2)C1` (centres unmarked) [Compound C32], the 50% inhibitory concentration (IC50) is above 10000 nM.

On to `O=C1COc2ccccc2N1CC(O)CN1CCc2ccccc2C1` (centres unmarked) [Compound C31], for which the IC50 fell in the range of 101 to 1000 nM.

As for `O=c1cc(Nc2ccccc2)ccn1C[C@H](O)CN1CCc2ccccc2C1` [Compound C19], the half-maximal inhibitory concentration (IC50) is 101 to 1000 nM.

Staying with this test, now noted: Table A-2; PRMT5/MEP50 4 nM, 3H-SAM 75 nM, peptide 40 nM; read-out: Biochemical IC50.
With `O=C(Cc1ccccc1)NC[C@@H](O)CN1CCc2ccccc2C1` [Compound A57], the IC50 was 10000 to 50000 nM.

On to `O=C(CC1CCCCC1)NC[C@@H](O)CN1CCc2ccccc2C1` [Compound A58], for which the IC50 was 10000 to 50000 nM.

For `CN1CC(c2ccccc2OCC(=O)NCC(O)CN2CCc3ccccc3C2)C1` (centres unmarked) [Compound A135], the concentration for half-maximal inhibition (IC50) fell in the range of 1000 to 10000 nM.

For `CS(=O)(=O)c1ccc(OCC(=O)NCC(O)CN2CCc3ccccc3C2)cc1` (centres unmarked) [Compound A14], the IC50 was 1000 to 10000 nM.

For `NC(=O)c1ccc(OCC(=O)NCC(O)CN2CCc3ccccc3C2)cc1` (centres unmarked) [Compound A13], the IC50 was in the range of 1000 to 10000 nM.

The same test, now with this note: Table B-2; PRMT5/MEP50 4 nM, 3H-SAM 75 nM, peptide 40 nM; read-out: Biochemical IC50.
As for `CN1CCCC1c1cccc(C(=O)NCC(O)CN2CCc3ccccc3C2)c1` (centres unmarked) [Compound B34.], the concentration for half-maximal inhibition (IC50) was below 100 nM.

Take `O=C(NCC(O)CN1CCc2ccccc2C1)c1cccc(N2CCOCC2)c1` (centres unmarked) [Compound B14.]: the half-maximal inhibitory concentration (IC50) is below 100 nM.

`O=C(NCC(O)CN1CCc2ccccc2C1)c1cccc(CNC2CCOCC2)c1` (centres unmarked) [Compound B15.]: the IC50 was below 100 nM.

Take `NS(=O)(=O)c1ccc(C(=O)NCC(O)CN2CCc3ccccc3C2)cc1` (centres unmarked) [Compound B21.]: the IC50 lay in the range of 101 to 1000 nM.

`COc1cc(NC2CCOCC2)cc(C(=O)NCC(O)CN2CCc3ccccc3C2)c1` (centres unmarked) [Compound B56.]: the IC50 was in the range of 101 to 1000 nM.

In the case of `O=C(NCC(O)CN1CCc2ccccc2C1)c1cc(NC2CCOCC2)ccn1` (centres unmarked) [Compound B55.], the concentration for half-maximal inhibition (IC50) was below 100 nM.

For the compound `O=C(NCC(O)CN1CCc2ccccc2C1)c1cccnc1` (centres unmarked) [Compound B18.], the IC50 was 101 to 1000 nM.

As for `O=C(NCC(O)CN1CCc2ccccc2C1)c1cccc(NC2COC2)c1` (centres unmarked) [Compound B50.], the IC50 is 101 to 1000 nM.

As for `CC(=O)Nc1ccc(C(=O)NCC(O)CN2CCc3ccccc3C2)cc1` (centres unmarked) [Compound B23.], the IC50 lay within 101 to 1000 nM.

Consider `O=C(NC[C@@H](O)CN1CCc2ccccc2C1)Oc1ccccc1` [Compound B11.], for which the IC50 is below 100 nM.

As to `O=C(NCC(O)CN1CCc2ccccc2C1)c1ccc(-c2ccccn2)cc1` (centres unmarked) [Compound B13.], the IC50 was below 100 nM.

The test is the same for the next values; noted with them: Table D-2; read-out: Biochemical IC50.
On to `Cc1cc(OCC(O)CN2CCc3ccccc3C2)c(C)cc1CN1CCOCC1` (centres unmarked) [Compound D17], for which the IC50 is 101 to 1000 nM.

`OC(COc1ccc(Cc2ccccc2)cc1)CN1CCc2ccccc2C1` (centres unmarked) [Compound D10]: the 50% inhibitory concentration (IC50) fell in the range of 101 to 1000 nM.

Take `Cn1cnc2ccc(N3CCCC(OCC(O)CN4CCc5ccccc5C4)C3)cc21` (centres unmarked) [Compound D66]: the IC50 fell in the range of 101 to 1000 nM.

`OC(COc1ccc(OCC(O)CN2CCc3ccccc3C2)cc1)CN1CCc2ccccc2C1` (centres unmarked) [Compound D3]: the IC50 is 101 to 1000 nM.

Consider `OC(COc1cccc(-c2cccc(Cl)c2)c1)CN1CCc2ccccc2C1` (centres unmarked) [Compound D91], for which the IC50 lay in the range of 1000 to 10000 nM.

As for `Cn1cnc2nc(-c3cccc(OCC(O)CN4CCc5ccccc5C4)c3)ncc21` (centres unmarked) [Compound D165], the IC50 was in the range of 1000 to 10000 nM.

Regarding `OC(COc1cccc(CNc2cc[nH]n2)c1)CN1CCc2ccccc2C1` (centres unmarked) [Compound D6], the IC50 was 101 to 1000 nM.

For `OC(COc1cccc(N2CCc3[nH]nc(-c4ccccc4)c3C2)c1)CN1CCc2ccccc2C1` (centres unmarked) [Compound D194], the IC50 was in the range of 1000 to 10000 nM.

Regarding `OC(CCc1cccc(CNC2CCCC2)c1)CN1CCc2ccccc2C1` (centres unmarked) [Compound D36], the IC50 was in the range of 10000 to 40000 nM.

Consider `COc1ncc(-c2cccc(OCC(O)CN3CCc4ccccc4C3)c2)cn1` (centres unmarked) [Compound D153], for which the IC50 lay within 1000 to 10000 nM.

On to `OC(COc1cccc(-c2cccnc2)c1)CN1CCc2ccccc2C1` (centres unmarked) [Compound D40], for which the IC50 was 1000 to 10000 nM.

On to `OC(COC1CCCN(c2ccccc2)C1)CN1CCc2ccccc2C1` (centres unmarked) [Compound D2], for which the half-inhibitory concentration (IC50) is 1000 to 10000 nM.

Take `CNC(=O)Cn1ccc2cnc(-c3cccc(OCC(O)CN4CCc5ccccc5C4)c3)nc21` (centres unmarked) [Compound D206]: the IC50 fell in the range of 1000 to 10000 nM.

In the case of `COc1ccc(Cn2nccc2-c2ccc(OC[C@@H](O)CN3CCc4ccccc4C3)cc2)cc1` [Compound D38], the IC50 was above 40000 nM.

For `OC(COc1ccccc1-c1ccno1)CN1CCc2ccccc2C1` (centres unmarked) [Compound D16], the IC50 lay within 1000 to 10000 nM.

On to `OC(COC1CCN(c2ccccc2)C1)CN1CCc2ccccc2C1` (centres unmarked) [Compound D175], for which the IC50 was in the range of 1000 to 10000 nM.

For the compound `O=C(NC1CCOCC1)c1cccc(NCC(O)CN2CCc3ccccc3C2)c1` (centres unmarked) [Compound D79], the IC50 lay within 10000 to 40000 nM.

In the case of `OC(COc1cccc(C2CCCCC2)c1)CN1CCc2ccccc2C1` (centres unmarked) [Compound D52], the IC50 fell in the range of 1000 to 10000 nM.

For the compound `Cc1ccc(-c2cccc(OCC(O)CN3CCc4ccccc4C3)c2)cn1` (centres unmarked) [Compound D78], the IC50 was 1000 to 10000 nM.

On to `OC(COc1cccc(OCc2ccccc2)c1)CN1CCc2ccccc2C1` (centres unmarked) [Compound D20], for which the IC50 lay within 1000 to 10000 nM.

Regarding `OC(COc1cccc(CN2CCCCC2)c1)CN1CCc2ccccc2C1` (centres unmarked) [Compound D14], the IC50 was in the range of 1000 to 10000 nM.

Consider `OC(COc1cccc(CNC2CCOCC2)c1)CN1CCc2ccccc2C1` (centres unmarked) [Compound D5], for which the IC50 lay in the range of 101 to 1000 nM.

For `Cc1cccc2c1CCN(CC(O)COc1cccc(-c3ccc4ncn(C)c4c3)c1)C2` (centres unmarked) [Compound D213], the IC50 lay within 1000 to 10000 nM.

Take `OC(COc1ccccc1N1CCNCC1)CN1CCc2ccccc2C1` (centres unmarked) [Compound D7]: the 50% inhibitory concentration (IC50) lay in the range of 10000 to 40000 nM.

Still in this test, the particulars now being: Table E-2; read-out: Biochemical IC50.
Take `C[C@@H](Oc1cccc2cccnc12)C(=O)NC[C@H](O)CN1Cc2ccccc2C1` [Compound E5.]: the IC50 is below 100 nM.

Consider `O=C(COc1cccc2cccnc12)NC[C@@H](O)CN1Cc2ccccc2C1` [Compound E16.], for which the IC50 lay within 1000 to 10000 nM.

For `CS(=O)(=O)c1ccccc1OCC(=O)NCC(O)CN1Cc2ccccc2C1` (centres unmarked) [Compound E12.], the IC50 is 101 to 1000 nM.
